# Patent publication US8314150B2, “Kinase protein binding inhibitors” (priority 2008, dated 2012)
# Key:
# cell growth and survival = conditions: cited from earlier work
# Y397-FAK phosphorylation = conditions: cited from earlier work
# FAK = target: T1, FAK (Homo sapiens, UniProt Q05397); assay: In vitro kinase assay with purified recombinant FAK; format: biochemical; conditions: positive control
# T1 construct: made in house; host or cells: Baculovirus system
# Description: (§1) Cell Viability Assay—The Cells were treated with peptides for 24 hours at different peptide concentrations. The 3-(4,5-dimethylthiazol-2-yl)-5-(3-carboxymethoxyphenyl)-2-(4-sulfophenyl)-2H-tetrazolium compound from Promega Viability kit (Madison, Ill.) was added, and the cells were incubated at 37° C. for 1-2 hours. The optical density on 96-plate was analyzed with a microplate reader at 490 nm to determine cell viability. In addition, cells were stained with trypan blue after 24 hours of treatment with Y15 and the percent of cells that stained positive were determined with a hemacytometer. […] Then 2% SDS was added to the dried plated and OD at 590 nm was measured for detecting cell adhesion. […] Protein concentrations were determined using a Bio-Rad Kit. The boiled samples were loaded on Ready SDS-10% PAGE gels (Bio Rad, Inc) and used for Western blot analysis with the protein-specific antibody. […] Detachment Assay—Cells were plated with and without inhibitors for 24 hours, and detached and attached cells were counted in a hemocytometer. We calculated the percent of detachment by dividing the number of detached cells by the total number of cells. The percent of detached cells was calculated in three independent experiments. […] For each experiment 300 cells per treatment were counted. […]
# IGFR kinase = IGFR kinase (Homo sapiens, UniProt P08069); conditions: cited from earlier work
# Chain of IGFR kinase (P08069 31-1367): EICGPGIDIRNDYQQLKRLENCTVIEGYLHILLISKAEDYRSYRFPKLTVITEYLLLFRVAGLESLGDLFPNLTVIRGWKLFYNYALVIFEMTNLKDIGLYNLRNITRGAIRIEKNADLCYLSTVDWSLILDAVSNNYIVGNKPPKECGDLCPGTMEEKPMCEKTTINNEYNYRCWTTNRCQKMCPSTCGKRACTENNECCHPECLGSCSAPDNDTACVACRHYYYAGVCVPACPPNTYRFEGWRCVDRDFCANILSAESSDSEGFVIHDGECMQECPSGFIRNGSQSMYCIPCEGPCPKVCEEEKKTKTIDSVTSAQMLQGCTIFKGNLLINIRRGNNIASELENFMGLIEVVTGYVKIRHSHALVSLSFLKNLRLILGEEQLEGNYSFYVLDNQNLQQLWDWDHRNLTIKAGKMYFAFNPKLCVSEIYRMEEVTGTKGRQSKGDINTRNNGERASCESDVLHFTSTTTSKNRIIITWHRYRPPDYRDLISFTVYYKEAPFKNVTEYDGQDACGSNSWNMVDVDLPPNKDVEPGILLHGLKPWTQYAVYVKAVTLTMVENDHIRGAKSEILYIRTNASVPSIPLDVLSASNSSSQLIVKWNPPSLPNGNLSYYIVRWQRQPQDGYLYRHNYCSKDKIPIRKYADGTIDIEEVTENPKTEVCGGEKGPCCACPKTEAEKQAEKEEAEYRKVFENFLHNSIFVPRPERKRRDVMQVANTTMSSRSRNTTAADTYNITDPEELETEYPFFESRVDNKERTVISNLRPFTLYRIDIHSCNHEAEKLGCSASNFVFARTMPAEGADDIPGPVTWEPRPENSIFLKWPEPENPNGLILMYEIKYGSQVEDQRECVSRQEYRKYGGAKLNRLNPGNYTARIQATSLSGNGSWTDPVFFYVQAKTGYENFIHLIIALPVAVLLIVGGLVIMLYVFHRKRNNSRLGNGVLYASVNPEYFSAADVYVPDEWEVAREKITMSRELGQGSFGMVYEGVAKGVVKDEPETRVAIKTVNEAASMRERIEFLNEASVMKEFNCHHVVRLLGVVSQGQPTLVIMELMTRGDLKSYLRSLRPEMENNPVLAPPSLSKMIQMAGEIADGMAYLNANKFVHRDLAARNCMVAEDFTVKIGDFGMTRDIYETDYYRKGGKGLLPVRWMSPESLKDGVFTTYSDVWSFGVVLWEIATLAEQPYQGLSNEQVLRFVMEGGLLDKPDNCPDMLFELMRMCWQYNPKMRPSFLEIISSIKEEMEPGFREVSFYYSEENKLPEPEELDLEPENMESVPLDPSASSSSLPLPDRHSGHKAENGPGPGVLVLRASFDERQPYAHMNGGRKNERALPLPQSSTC
# glioma and ovarian tumor = conditions: cited from earlier work
# Panc-1 cells = assay: Apoptosis assay (Hoechst staining), Panc-1; format: cell-based, human; conditions: 48 hours
# Description: (§2) Cell Viability Assay—The Cells were treated with peptides for 24 hours at different peptide concentrations. The 3-(4,5-dimethylthiazol-2-yl)-5-(3-carboxymethoxyphenyl)-2-(4-sulfophenyl)-2H-tetrazolium compound from Promega Viability kit (Madison, Ill.) was added, and the cells were incubated at 37° C. for 1-2 hours. The optical density on 96-plate was analyzed with a microplate reader at 490 nm to determine cell viability. In addition, cells were stained with trypan blue after 24 hours of treatment with Y15 and the percent of cells that stained positive were determined with a hemacytometer. Cell adhesion assay—The poly-L-Lysine or Collagen (5 μg/ml) coated 96-well plates were blocked with the blocking buffer (medium with 0.5% BSA) for 1 hour at 37 C. The cells were pre-treated with drugs for 3 hours and plated for adhesion at 4×10^5 cells. Cells were incubated at 37 C for 1 hour, fixed in 3.7% formaldehyde, washed in 0.1% BSA in PBS and stained with crystal violet (5 mg/ml in 2% ethanol) for 10 minutes. Then 2% SDS was added to the dried plated and OD at 590 nm was measured for detecting cell adhesion. […] Protein concentrations were determined using a Bio-Rad Kit. The boiled samples were loaded on Ready SDS-10% PAGE gels (Bio Rad, Inc) and used for Western blot analysis with the protein-specific antibody. […] Detachment Assay—Cells were plated with and without inhibitors for 24 hours, and detached and attached cells were counted in a hemocytometer. We calculated the percent of detachment by dividing the number of detached cells by the total number of cells. The percent of detached cells was calculated in three independent experiments. […] The percent of apoptotic cells was calculated as a ratio of apoptotic detached cells divided by the total number of cells in three independent experiments in several fields with the fluorescent microscope. For each experiment 300 cells per treatment were counted. […]
# [1] = test system: Y397 phosphorylation of FAK; assay: Western blotting with Y397 FAK antibody, BT474 cells; format: cell-based; conditions: 100 μM
# Description: (§3) Cell Viability Assay—The Cells were treated with peptides for 24 hours at different peptide concentrations. The 3-(4,5-dimethylthiazol-2-yl)-5-(3-carboxymethoxyphenyl)-2-(4-sulfophenyl)-2H-tetrazolium compound from Promega Viability kit (Madison, Ill.) was added, and the cells were incubated at 37° C. for 1-2 hours. The optical density on 96-plate was analyzed with a microplate reader at 490 nm to determine cell viability. In addition, cells were stained with trypan blue after 24 hours of treatment with Y15 and the percent of cells that stained positive were determined with a hemacytometer. Cell adhesion assay—The poly-L-Lysine or Collagen (5 μg/ml) coated 96-well plates were blocked with the blocking buffer (medium with 0.5% BSA) for 1 hour at 37 C. The cells were pre-treated with drugs for 3 hours and plated for adhesion at 4×10^5 cells. Cells were incubated at 37 C for 1 hour, fixed in 3.7% formaldehyde, washed in 0.1% BSA in PBS and stained with crystal violet (5 mg/ml in 2% ethanol) for 10 minutes. Then 2% SDS was added to the dried plated and OD at 590 nm was measured for detecting cell adhesion. Western Blotting—Cells or homogenized tumor samples were washed twice with cold 1×PBS and lysed on ice for 30 minutes in a buffer containing: 50 mM Tris-HCl (pH 7.5), 150 mM NaCl, 1% Triton-X, 0.5% NaDOC, 0.1% SDS, 5 mM EDTA, 50 mM NaF, 1 mM NaVO3, 10% glycerol and protease inhibitors: 10 μg/ml leupeptin, 10 μg/ml PMSF and 1 μg/ml aprotinin. The lysates were cleared by centrifugation at 10,000 rpm for 30 minutes at 4° C. Protein concentrations were determined using a Bio-Rad Kit. The boiled samples were loaded on Ready SDS-10% PAGE gels (Bio Rad, Inc) and used for Western blot analysis with the protein-specific antibody. Immunoblots were developed with chemiluminescence Renaissance reagent (NEN Life Science Products, Inc). Immunoprecipitation. Immunoprecipitation was performed according to the standard protocol. In brief, the pre-cleared lysates with equal amount of protein were incubated with 1 μg of primary antibody and 30 μl A/G agarose beads overnight at 4° C. The precipitates were washed with lysis buffer three times and re-suspended in 2× Laemmli buffer. The boiled samples were used for Western blotting, as described above. Detachment Assay—Cells were plated with and without inhibitors for 24 hours, and detached and attached cells were counted in a hemocytometer. We calculated the percent of detachment by dividing the number of detached cells by the total number of cells. The percent of detached cells was calculated in three independent experiments. Apoptosis Assay. Detached cells were collected and fixed in 3.7% formaldehyde in 1×PBS solution for the apoptosis assay. Detection of apoptosis was done with Hoechst 33342 staining. The percent of apoptotic cells was calculated as a ratio of apoptotic detached cells divided by the total number of cells in three independent experiments in several fields with the fluorescent microscope. For each experiment 300 cells per treatment were counted. In vitro Kinase Assay—10 μCi of [γ-^32P]-ATP in a kinase buffer (20 mM HEPES, pH 7.4, 5 mM MgCl2, 5 mM MnCl2, 0.1 mM Na3VO4 with 0.1 μg of purified FAK protein were incubated in a kinase buffer with 10 μCi of [γ-^32P]-ATP. The kinase reaction was performed for 5 minutes at room temperature and stopped by addition of 2× Laemmli buffer. Proteins were separated on a Ready SDS-10% PAGE gel, and the phosphorylated enolase was visualized by autoradiography. KinaseProfiler screening—Kinase specificity screening was performed with KinaseProfiler™ Service (Millipore) available on http://www.millipore.com/drugdiscovery/dd3/KinaseProfiler. The screening was performed with 1 μM Y15, 10 μM ATP and kinase substrates on 9 recombinant kinases according to Millipore protocol. Tumor Growth in Nude Mice—Female nude mice, 6 weeks old, were purchased from Harlan Laboratory. […]
# BT474 cells [2] = assay: Apoptosis assay (Hoechst staining), BT474; format: cell-based
# Description: as §2, with “counted. In vitro Kinase Assay—10 μCi of [γ-^32P]-ATP in a kinase buffer (20 mM HEPES, pH 7.4, 5 mM MgCl2, 5 mM MnCl2, 0.1 mM Na3VO4 with 0.1 μg of purified FAK protein were incubated in a kinase buffer with 10 μCi of [γ-^32P]-ATP. The kinase reaction was performed for 5 minutes at room temperature and stopped by addition of 2× Laemmli buffer. Proteins were separated on a Ready SDS-10% PAGE gel, and the phosphorylated enolase was visualized by autoradiography. KinaseProfiler screening—Kinase specificity screening was performed with KinaseProfiler™ Service (Millipore) available on http://www.millipore.com/drugdiscovery/dd3/KinaseProfiler.” for “counted.”
# BT474 cells [3] = assay: Detachment assay, BT474; format: cell-based; conditions: 24 hours
# Description: as §3, with “Detached cells were collected and fixed in 3.7% formaldehyde in 1×PBS solution for the apoptosis assay. Detection of apoptosis was done with Hoechst 33342 staining.” left out, “http://www.millipore.com/drugdiscovery/dd3/KinaseProfiler.” for “http://www.millipore.com/drugdiscovery/dd3/KinaseProfiler. The screening was performed with 1 μM Y15, 10 μM ATP and kinase substrates on 9 recombinant kinases according to Millipore protocol. Tumor Growth in Nude Mice—Female nude mice, 6 weeks old, were purchased from Harlan Laboratory.”
# caspase-3 = assay: Caspase-3 immunohistochemistry of Panc-1 tumors; format: in vivo, mice; conditions: 30 mg/kg, no significant increase
# Description: as §1
# Panc-1 tumor cells = assay: Panc-1 subcutaneous tumor growth in nude mice; format: in vivo; conditions: 30 mg/kg each, daily intraperitoneal
# Description: as §1
# T1 sequence (Q05397 whole entry): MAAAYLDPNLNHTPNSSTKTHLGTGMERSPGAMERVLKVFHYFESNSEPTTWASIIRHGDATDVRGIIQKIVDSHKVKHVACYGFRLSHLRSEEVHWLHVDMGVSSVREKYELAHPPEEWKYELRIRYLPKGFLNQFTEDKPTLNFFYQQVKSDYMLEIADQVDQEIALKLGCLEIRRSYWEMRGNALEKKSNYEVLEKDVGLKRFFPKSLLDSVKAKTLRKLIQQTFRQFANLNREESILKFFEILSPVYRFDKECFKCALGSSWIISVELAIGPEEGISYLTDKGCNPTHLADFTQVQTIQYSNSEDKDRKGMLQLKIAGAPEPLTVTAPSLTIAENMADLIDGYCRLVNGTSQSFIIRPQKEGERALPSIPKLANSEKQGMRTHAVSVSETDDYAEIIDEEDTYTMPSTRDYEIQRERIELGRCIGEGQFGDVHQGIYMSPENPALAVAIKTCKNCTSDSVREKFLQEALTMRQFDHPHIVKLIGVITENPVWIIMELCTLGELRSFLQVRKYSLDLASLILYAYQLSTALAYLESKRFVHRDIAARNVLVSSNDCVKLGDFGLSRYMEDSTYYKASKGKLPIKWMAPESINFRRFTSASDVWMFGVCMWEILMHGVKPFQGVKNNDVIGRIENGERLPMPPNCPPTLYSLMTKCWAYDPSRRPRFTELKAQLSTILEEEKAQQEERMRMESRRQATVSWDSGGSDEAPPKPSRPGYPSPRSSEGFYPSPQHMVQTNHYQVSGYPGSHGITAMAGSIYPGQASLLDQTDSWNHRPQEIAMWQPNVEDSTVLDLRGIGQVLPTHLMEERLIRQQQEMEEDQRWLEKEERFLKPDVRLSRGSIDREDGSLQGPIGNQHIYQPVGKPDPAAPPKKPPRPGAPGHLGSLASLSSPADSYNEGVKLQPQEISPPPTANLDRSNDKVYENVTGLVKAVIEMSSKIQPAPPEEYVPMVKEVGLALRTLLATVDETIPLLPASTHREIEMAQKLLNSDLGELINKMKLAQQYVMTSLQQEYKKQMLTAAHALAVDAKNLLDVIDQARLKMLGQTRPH
Compound,cell growth and survival in vitro (cell growth and survival),Y397-FAK phosphorylation (Y397-FAK phosphorylation),FAK autophosphorylation activity (FAK),IGFR kinase inhibition (IGFR kinase),"tumor growth in ovarian tumor model (glioma and ovarian tumor; 30 mg/kg, alone)",tumor growth in vivo (glioma and ovarian tumor),level of apoptosis compared to similar doses of Y15 (Panc-1 cells),total FAK level [1],Y397 phosphorylation of FAK ([1]; 24 hours),apoptosis (BT474 cells [2]; 10 μM) [%],apoptosis (BT474 cells [2]; 20 μM) [%],detachment (BT474 cells [3]; 10 μM) [%],detachment (BT474 cells [3]; 50 μM) [%],apoptotic cells in tumors (caspase-3 staining) (caspase-3) [%],tumor growth (Panc-1 tumor cells)
"CS(=O)(=O)c1cccc(CNc2nc(Nc3ccc4c(c3)CCC(=O)N4)ncc2C(F)(F)F)c1 [PF-573,228]",did not inhibit cell growth and survival in vitro,effectively blocked Y397-FAK phosphorylation,,,,,,,,,,,,,
"CNC(=O)c1ccccc1Nc1nc(Nc2ccc(N3CCOCC3)cc2OC)ncc1Cl [TAE226, reference compound]",,effectively blocked Y397-FAK phosphorylation,directly blocked autophosphorylation activity of FAK,inhibited IGFR kinase,not so effective,inhibited glioma and ovarian tumor growth in vivo,slightly higher level of apoptosis,down-regulated total FAK,completely blocked Y397 phosphorylation,35,69,30,> 80,,
"Nc1ccn([C@@H]2O[C@H](CO)[C@@H](O)C2(F)F)c(=O)n1 [gemcitabine, reference compound]",,,,,,,,,,,,,,2,inhibited tumor growth
